Source: article PMC8620390, “New Multi-Targeted Antiproliferative Agents: Design and Synthesis of IC261-Based Oxindoles as Potential Tubulin, CK1 and EGFR Inhibitors” (Pharmaceuticals, 2021)

Tests used:
PC-3 = assay: Two-dose antiproliferative screening, SRB assay, PC-3; assay type: cell-based; settings: triplicates; for inhibition at 1 µM / inhibition at 10 µM: Homo sapiens, PC-3, 72 h; for inhibition at 1 µM: read-out: Growth Inhibition (%) PC-3 1 μM Average; for inhibition at 10 µM: read-out: Growth Inhibition (%) PC-3 10 μM Average
Description: (§1) MCF-7(breast adenocarcinoma), PC-3 (prostate cancer) and COLO-205 (colorectal cancer) were obtained from Nawah Scientific inc., (Mokatam, Cairo, Egypt). Cells were maintained in Dulbecco’s Modified Eagle’s media (DMEM media) supplemented with […] of streptomycin, 100 units/mL of penicillin and 10% of heat-inactivated fetal bovine serum in humidified, 5% (v/v) CO2 atmosphere at 37 °C.
(§2) Cell viability was assessed by the sulforhodamine B (SRB) assay. Aliquots of cell suspension (5 × 10^3 cells, 100 μL) were transferred into 96 well plates and incubated in complete media for 24 h. Cells were treated with another aliquot media (100 μL) containing compounds 3a–f, 4a–f, 6a–f, 7a–f, 9a–b at concentrations of 1 and 10 μM). After 72 h of drug exposure, cells were fixed by replacing media with trichloroacetic acid (TCA, 10%, 150 μL) and incubated at 4 °C for 1 h. The TCA solution was removed, and the cells were washed five times with distilled water. Aliquots of SRB solution (0.4%w/v, 70 μL) were added and incubated in a dark place at room temperature for 10 min. Plates were washed three times with 1% acetic acid and allowed to air dry overnight. Then, a solution of TRIS base and TRIS HCl (TRIS buffer, 10 mM, 150 μL) was added to dissolve protein bound SRB stain. The absorbance was measured at 540 nm using BMGLABTECH®–FLUOstar omega micro-plate reader (Ortenberg, Germany).

MCF-7 = assay: Two-dose antiproliferative screening, SRB assay, MCF-7; assay type: cell-based; settings: Homo sapiens, MCF7, 72 h, triplicates; for inhibition at 1 µM: read-out: Growth Inhibition (%) MCF-7 1 μM Average; for inhibition at 10 µM: read-out: Growth Inhibition (%) MCF-7 10 μM Average
Description: as §1, §2

COLO-205 [1] = assay: Two-dose antiproliferative screening, SRB assay, COLO-205; assay type: cell-based, human; settings: triplicates; for Growth Inhibition (%) COLO-205 10 μM Average: 72 h; for inhibition at 1 µM / inhibition at 10 µM: Homo sapiens, COLO 205, 72 h; for inhibition at 1 µM: read-out: Growth Inhibition (%) COLO-205 1 μM Average; for inhibition at 10 µM: read-out: Growth Inhibition (%) COLO-205 10 μM Average
Description: as §1, §2

COLO-205 [2] = assay: IC50 against COLO-205, SRB assay; assay type: cell-based; settings: Homo sapiens, 0.001–100 μM
Description: as §2
The same procedures used to screen two-dose anticancer activities were applied in determining IC50 values against COLO-205 using SRB assay. Cells were maintained at Roswell Park Memorial Institute media (RPMI media). The test was performed using 0.001–100 μM of compounds 4a (IC261), 4b, 4d, 4e, 6e and 6f. IC50 values were calculated using the equation for Boltzman sigmoidal concentration–response curve using the nonlinear regression fitting models by GraphPad, Prism version 5 (GraphPad Software Inc., La Jolla, CA, USA).

CK1 [3] = assay: Casein Kinase 1 (CK1) 33P-ATP assay; assay type: biochemical
Description: The active CK1, kinase assay buffer, substrate solution and kinase dilution buffer were thawed on ice (^33P-ATP assay Cocktail). In a precooled microcentrifuge tube, 10 μL of kinase solution, 5 μL of substrate solution and 5 μL of cold water (4 °C) were added, then a blank control was set up. Each reaction was initiated by adding 5 μL of ^33P-ATP assay cocktail then incubated for 15 min in a water bath (30 °C), then 20 μL of the reaction mixture were spotted onto an individually precut strip of phosphocellulose P81 paper and allowed to air dry followed by washing using 1% H2SO4 with constant gentle stirring. A radioactive control was set up then 5 μL of γ-^33P-ATP assay cocktail was spotted on P81 paper, the sample was allowed to air dry for 2 min then the radioactivity count was recorded.

EGFR = target: T1, EGFR (Homo sapiens, UniProt P00533); assay: EGFR kinase assay kit (Kinase-Glo MAX); assay type: biochemical; settings: EGFR-TK kinase kit; read-out: EGFR Inhibition IC50 (converted)
T1 construct: enough purified recombinant EGFR enzyme, EGFR substrate, ATP, and kinase assay buffer; purchased Sigma Aldrich
T1 sequence (P00533 25-1210): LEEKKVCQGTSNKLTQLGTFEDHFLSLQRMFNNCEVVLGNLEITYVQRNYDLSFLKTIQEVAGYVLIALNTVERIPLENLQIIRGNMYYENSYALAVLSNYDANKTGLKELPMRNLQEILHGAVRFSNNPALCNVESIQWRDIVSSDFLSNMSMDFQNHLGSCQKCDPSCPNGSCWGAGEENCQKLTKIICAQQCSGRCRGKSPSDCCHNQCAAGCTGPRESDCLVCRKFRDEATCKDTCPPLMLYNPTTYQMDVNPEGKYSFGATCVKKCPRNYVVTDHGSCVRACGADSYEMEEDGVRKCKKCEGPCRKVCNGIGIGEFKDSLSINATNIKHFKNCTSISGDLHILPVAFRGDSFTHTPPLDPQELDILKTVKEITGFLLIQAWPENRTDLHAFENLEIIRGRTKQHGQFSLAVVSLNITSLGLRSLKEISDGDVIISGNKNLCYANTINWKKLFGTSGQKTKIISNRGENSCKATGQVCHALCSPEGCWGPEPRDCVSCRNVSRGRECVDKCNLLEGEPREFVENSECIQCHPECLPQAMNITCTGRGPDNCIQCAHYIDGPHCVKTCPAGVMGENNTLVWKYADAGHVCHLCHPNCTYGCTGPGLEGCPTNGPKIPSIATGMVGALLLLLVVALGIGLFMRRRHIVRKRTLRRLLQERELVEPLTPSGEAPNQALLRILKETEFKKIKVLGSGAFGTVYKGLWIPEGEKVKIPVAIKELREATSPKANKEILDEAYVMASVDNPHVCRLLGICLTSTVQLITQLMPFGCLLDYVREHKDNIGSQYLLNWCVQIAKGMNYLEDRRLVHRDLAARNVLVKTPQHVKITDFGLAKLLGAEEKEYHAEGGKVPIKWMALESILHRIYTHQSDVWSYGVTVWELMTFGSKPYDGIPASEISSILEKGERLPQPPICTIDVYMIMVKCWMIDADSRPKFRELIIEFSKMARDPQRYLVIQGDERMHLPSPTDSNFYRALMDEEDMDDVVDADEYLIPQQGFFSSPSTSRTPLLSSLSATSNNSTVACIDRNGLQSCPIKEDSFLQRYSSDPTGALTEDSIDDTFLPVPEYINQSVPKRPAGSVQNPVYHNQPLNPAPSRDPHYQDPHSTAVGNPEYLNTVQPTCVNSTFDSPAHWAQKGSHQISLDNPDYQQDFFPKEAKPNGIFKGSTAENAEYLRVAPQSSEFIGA
Description: The EGFR Kinase Assay Kit (Sigma Aldrich, St. Louis, […], USA) is designed to measure EGFR Kinase activity for screening and profiling applications using Kinase-Glo® MAX as a detection reagent. The EGFR Kinase Assay Kit (Sigma Aldrich, St. Louis, […], USA) comes in a convenient 96-well format, with enough purified recombinant EGFR enzyme, EGFR substrate, ATP, and kinase assay buffer for 100 enzyme reactions. The master mixture (25 μL per well) was prepared out of Kinase assay buffer (6 μL), ATP (500 μM, 1 μL), PTK substrate (50×, 1 μL) and water (17 μL) and added to each well. Inhibitor solution was made by dissolving 4b in a liquid labelled” inhibitor buffer”. An inhibitor solution (5 μL) was then added to each well, labelled as “Test Inhibitor”. For “Positive Control” and “Blank”, add 5 μL inhibitor buffer). EGFR was thawed on ice. Its tube was spun briefly to recover the full content of the tube. The enzyme was diluted with 1× Kinase assay buffer enzyme to 1 ng/μL. The reaction was initiated by adding 20 μL of diluted EGFR enzyme to the wells designated “Positive Control” and “Test Inhibitor Control”. The plate was incubated at 30 °C for 40 min. After the 40-min reaction, the Kinase-Glo Max (50 μL) reagent was added to each well. The plate was covered with aluminum foil, incubated at room temperature for 15 min and the luminescence was measured using the microplate reader.

CK1 [4] = settings: cited from earlier work

| Structure (SMILES) | inhibition at 1 µM (PC-3; 1 μM) [%] | inhibition at 10 µM (PC-3) [%] | inhibition at 1 µM (MCF-7) [%] | inhibition at 10 µM (MCF-7) [%] | melting point [°C] | Growth Inhibition (%) COLO-205 10 μM Average (COLO-205 [1]) [%] | inhibition at 1 µM (COLO-205 [1]) [%] | inhibition at 10 µM (COLO-205 [1]) [%] | IC50 (COLO-205 [2]) [µM] | Casein Kinase I Inhibition IC50 (CK1 [3]) [µg/mL] | fold less potent on CK1 than compound 4b (CK1 [3]; ratio of CK1 IC50 vs 4b) | IC50 (EGFR) [nM] | Growth Inhibition (%) PC-3 1 μM Average (PC-3; 1 μM, 72 h) [%] | inhibitory activity against CK1 (CK1 [4]) [µM] |
| --- | --- | --- | --- | --- | --- | --- | --- | --- | --- | --- | --- | --- | --- | --- |
| COc1cc(OC)c(/C=C2/C(=O)Nc3ccc(Cl)cc32)c(OC)c1 [Compound 4c, (E)-5-chloro-3-(2,4,6-trimethoxybenzylidene)indolin-2-one] | 28.9 | 62.2 | 17.9 | 65.1 | 244 to 247 | 58.44 | 2.67 | 58 |  |  |  |  |  |  |
| COc1cc(OC)c(/C=C2/C(=O)Nc3ccc(F)cc32)c(OC)c1 [Compound 4d, (E)-5-fluoro-3-(2,4,6-trimethoxybenzylidene)indolin-2-one] | 23.8 | 58 | 10 | 66.1 | 212 to 215 | 64.01 | 9.69 | 64 | 1 |  |  |  |  |  |
| COc1cc(OC)c(/C=C2/C(=O)Nc3ccc(OC)cc32)c(OC)c1 [Compound 4e, (E)-5-methoxy-3-(2,4,6-trimethoxybenzylidene)indolin-2-one] | 43 | 63.3 | 34.5 | 68.9 | 221 to 223 |  | 8.05 | 31.9 | 0.3 | 13.08 | about 6.8 fold | 1170 | 42.36 |  |
| COc1cc(/C=C2/C(=O)N(Cc3ccc(Cl)cc3)c3cc(Cl)ccc32)cc(OC)c1OC [Compound 6e, (E)-6-chloro-1-(4-chlorobenzyl)-3-(3,4,5-trimethoxybenzylidene) indolin-2-one] | 3.22 | 5.65 | 3.69 | 6 |  |  | 6.49 | 72.6 | 15.3 |  |  |  |  |  |
| COc1cc(/C=C2/C(=O)N(Cc3ccc(F)cc3)c3cc(Cl)ccc32)cc(OC)c1OC [Compound 6f, (E)-6-chloro-1-(4-fluorobenzyl)-3-(3,4,5-trimethoxybenzylidene) indolin-2-one] | 0.4 | 23.4 | 3.56 | 29.9 |  |  | 3.67 | 63.8 | 10.6 |  |  |  |  |  |
| COc1cc(/C=C2/C(=O)N(CC(=O)OC(C)(C)C)c3cc(Cl)ccc32)cc(OC)c1OC [Compound 9a, t-Butyl (E)-2-(6-chloro-2-oxo-3-(3,4,5-trimethoxybenzylidene)indolin-1-yl)acetate] | 1.19 | 5.56 | 2.11 | 7.11 | 82 to 85 |  | 3.05 | 13 |  |  |  |  |  |  |
| CCOC(=O)CN1C(=O)/C(=C/c2cc(OC)c(OC)c(OC)c2)c2ccc(Cl)cc21 [Compound 9b, Ethyl (E)-2-(6-chloro-2-oxo-3-(3,4,5-trimethoxybenzylidene)indolin-1-yl)acetate] | 1.66 | 13.2 | 2.3 | 6.82 | 60 to 62 |  | 35.1 | 40.9 |  |  |  |  |  |  |
| Nc1ccc2c(c1)/C(=C1/Nc3ccccc3/C1=N\O)C(=O)N2 [X] |  |  |  |  |  |  |  |  |  |  |  |  |  | 0.13 |
